Measured values taken from patent US11802120B2, “Fused cyclic urea derivatives as CRHR2 antagonist” (RaQualia Pharma Inc., priority 2018, dated 2023).

Experiments:
human CRHR1-beta = target: T1, human CRHR1-beta (Homo sapiens, UniProt P34998); experiment: cAMP functional assay for human CRHR1 (LANCE Ultra cAMP, TR-FRET); format: cell-based; conditions: CHO-K1 cells expressing human CRHR1-beta, agonist CRF at EC80, cAMP; read-out: IC50 against CRHR1
T1 sequence (P34998 24-444 isoform P34998-1 limits assumed): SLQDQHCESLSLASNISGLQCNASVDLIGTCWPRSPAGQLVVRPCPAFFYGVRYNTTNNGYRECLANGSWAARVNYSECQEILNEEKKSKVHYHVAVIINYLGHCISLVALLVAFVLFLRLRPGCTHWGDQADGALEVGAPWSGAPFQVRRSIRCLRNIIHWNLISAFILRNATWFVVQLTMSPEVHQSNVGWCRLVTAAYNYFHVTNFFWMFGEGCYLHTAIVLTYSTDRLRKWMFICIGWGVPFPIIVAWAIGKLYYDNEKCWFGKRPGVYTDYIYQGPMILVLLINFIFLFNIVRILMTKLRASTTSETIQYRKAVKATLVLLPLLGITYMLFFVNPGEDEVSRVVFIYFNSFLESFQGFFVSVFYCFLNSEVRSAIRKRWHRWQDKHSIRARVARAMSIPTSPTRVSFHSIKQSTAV
Description: cAMP functional assay for human CRHR1 and CRHR2
The ability of the compounds of this invention to inhibit either CRHR2 or CRHR1 is assessed by 3′,5′-cyclic adenosine monophosphate (cAMP) production in cells using the LANCE Ultra cAMP assay kit (ParkinElmer), which are designed based on the homogeneous time-resolved fluorescence resonance energy transfer (TR-FRET) immunoassay.
CHO-K1 (Chinese hamster ovary) cells stably expressing either human CRHR2-alpha (DiscoveRX, Cat. 95-0048C2) or human CRHR1-beta (DiscoveRX, Cat. 95-0047C2) are grown in HAM's F12 media supplemented with 10% fetal bovine serum (FBS), 100 units/mL penicillin, 100 microg/mL hygromycin and 0.5 microg/mL geneticin at 37° C. in 5% CO2 humidified incubator to 80% confluence. After 7 hours starvation treatment in culture media containing 0.1% FBS, the cells are washed with Hanks balanced salt solution (HBSS) and cryopreserved.
For cAMP assay, frozen cells are thawed and washed with HBSS, followed by resuspended in assay buffer (HBSS containing 0.1% bovine serum albumin, 0.5 mM isobutylmethylxanthine and 5 mM Hepes, pH 7.4) at the appropriate concentration for the assay. The cell suspensions are plated on 384-well microplates (Greiner Bio-One) at a density of 4,000 cells per well. After preincubating the cells with various concentrations of the compounds for 30 min at 25° C., an assay buffer containing EC80 concentration of each agonist is added and the cells are incubated for 30 min at 25° C. Human urocortin2 (Peptide Institute) and CRF (Peptide Institute) are used as agonists for CRHR2 and CRHR1, respectively. For the termination of assay, europium-labeled cAMP tracer and ULight (registered trademark) dye labeled cAMP antibodies, both prepared with Lance-Ultra cAMP detection reagent (Perkin Elmer) are added in the plate and incubate for 60 min at 25° C. After incubation, TR-FRET signal is detected by EnVision plate reader (PerkinElmer). The IC50 values for compounds are calculated from dose-response curves by fitting the percent inhibition using XLfit (ID Business Solutions).

human CRHR2-alpha = target: T2, human CRHR2-alpha (Homo sapiens, UniProt Q13324); experiment: cAMP functional assay for human CRHR2 (LANCE Ultra cAMP, TR-FRET); format: cell-based; conditions: CHO-K1 cells expressing human CRHR2-alpha, agonist human urocortin2 at EC80, cAMP; read-out: IC50 against CRHR2
T2 sequence (Q13324 1-411): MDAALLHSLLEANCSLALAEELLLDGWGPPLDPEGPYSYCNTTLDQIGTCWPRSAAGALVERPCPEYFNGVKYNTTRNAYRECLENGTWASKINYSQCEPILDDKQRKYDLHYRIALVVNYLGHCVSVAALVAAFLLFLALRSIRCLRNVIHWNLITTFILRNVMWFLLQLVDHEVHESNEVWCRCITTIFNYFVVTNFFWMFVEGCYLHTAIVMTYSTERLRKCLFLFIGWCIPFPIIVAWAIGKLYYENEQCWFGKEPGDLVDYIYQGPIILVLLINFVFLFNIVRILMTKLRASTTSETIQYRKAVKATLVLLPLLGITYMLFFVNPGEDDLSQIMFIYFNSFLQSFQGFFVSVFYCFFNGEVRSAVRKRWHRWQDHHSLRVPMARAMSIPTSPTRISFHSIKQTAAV
Procedure, shortened: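 CHO-K1 stable lines; 4,000 cells/well; compound 30 min, 25° C; EC80 agonist (human urocortin2 → CRHR2, CRF → CRHR1) 30 min, 25° C; buffer HBSS/0.1% BSA/0.5 mM IBMX/5 mM Hepes pH 7.4; Eu-cAMP tracer + ULight antibody 60 min; TR-FRET read; IC50 from % inhibition curves.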

| SMILES | IC50 (human CRHR1-beta) [nM] | IC50 (human CRHR2-alpha) [nM] |
| --- | --- | --- |
| Cc1ncc(Cl)cc1C(=O)N[C@H]1CC[C@H](Cn2c(=O)n(CC3CCOCC3)c3ccccc32)CC1 [Example 3, 5-chloro-2-methyl-N-((1r,4r)-4-((2-oxo-3-((tetrahydro-2H-pyran-4-yl)methyl)-2,3-dihydro-1H-benzo[d]imidazol-1-yl)methyl)cyclohexyl)nicotinamide] | < 1000 |  |
| Cc1ncc(Cl)cc1C(=O)N[C@H]1CC[C@H](Cn2c(=O)n(-c3ccc(CO)cc3)c3ccccc32)CC1 [Example 21, 5-chloro-N-((1r,4r)-4-((3-(4-(hydroxymethyl)phenyl)-2-oxo-2,3-dihydro-1H-benzo[d]imidazol-1-yl)methyl)cyclohexyl)-2-methylnicotinamide] | < 1000 |  |
| Cc1ccc(-n2c(=O)n(C[C@H]3CC[C@H](NC(=O)c4cc(Cl)cnc4C)CC3)c3ccccc32)cn1 [Example 31, 5-chloro-2-methyl-N-((1r,4r)-4-((3-(6-methylpyridin-3-yl)-2-oxo-2,3-dihydro-1H-benzo[d]imidazol-1-yl)methyl)cyclohexyl)nicotinamide] | < 1000 |  |
| COc1ncc(-n2c(=O)n(C[C@H]3CC[C@H](NC(=O)c4cc(Cl)cnc4C)CC3)c3ccccc32)cn1 [Example 43, 5-chloro-N-((1r,4r)-4-((3-(2-methoxypyrimidin-5-yl)-2-oxo-2,3-dihydro-1H-benzo[d]imidazol-1-yl)methyl)cyclohexyl)-2-methylnicotinamide] | < 1000 |  |
| Cc1ncc(Cl)cc1C(=O)N[C@H]1CC[C@H](Cn2c(=O)n(-c3ccc(OCCN(C)C)nc3)c3c(C)cccc32)CC1 [Example 59, 5-chloro-N-((1r,4r)-4-((3-(6-(2-(dimethylamino)ethoxy)pyridin-3-yl)-4-methyl-2-oxo-2,3-dihydro-1H-benzo[d]imidazol-1-yl)methyl)cyclohexyl)-2-methylnicotinamide] | < 1000 |  |
| Cc1ncc(Cl)cc1C(=O)N[C@H]1CC[C@H](Cn2c(=O)n(-c3ccc(N4CC[C@H](N(C)C)C4)nc3)c3ccccc32)CC1 [Example 61, 5-chloro-N-((1S,4r)-4-((3-(6-((S)-3-(dimethylamino)pyrrolidin-1-yl)pyridin-3-yl)-2-oxo-2,3-dihydro-1H-benzo[d]imidazol-1-yl)methyl)cyclohexyl)-2-methylnicotinamide] | < 1000 |  |
| Cc1ncc(Cl)cc1C(=O)N[C@H]1CC[C@H](Cn2c(=O)n(-c3ccc(N4CCN(CCO)CC4)nc3)c3ccccc32)CC1 [Example 65, 5-chloro-N-((1r,4r)-4-((3-(6-(4-(2-hydroxyethyl)piperazin-1-yl)pyridin-3-yl)-2-oxo-2,3-dihydro-1H-benzo[d]imidazol-1-yl)methyl)cyclohexyl)-2-methylnicotinamide] | < 1000 |  |
| Cc1ncc(Cl)cc1C(=O)N[C@H]1CC[C@H](Cn2c(=O)n(-c3ccc(N4CCN(C)CC4)nn3)c3ccccc32)CC1 [Example 68, 5-chloro-2-methyl-N-((1r,4r)-4-((3-(6-(4-methylpiperazin-1-yl)pyridazin-3-yl)-2-oxo-2,3-dihydro-1H-benzo[d]imidazol-1-yl)methyl)cyclohexyl)nicotinamide] | < 1000 |  |
| O=C(N[C@H]1CC[C@H](Cn2c(=O)n(-c3ccc(N4CCNC4=O)nc3)c3ccc(F)cc32)CC1)c1cc(Cl)cnc1C(F)F [Example 736, 5-chloro-2-(difluoromethyl)-N-((1r,4r)-4-((6-fluoro-2-oxo-3-(6-(2-oxoimidazolidin-1-yl)pyridin-3-yl)-2,3-dihydro-1H-benzo[d]imidazol-1-yl)methyl)cyclohexyl) nicotinamide] |  | < 300 |
| Cn1ccc(-c2ccc(-n3c(=O)n(C[C@H]4CC[C@H](NC(=O)c5cc(Cl)cnc5C(F)F)CC4)c4ccccc43)cn2)n1 [Example 737, 5-chloro-2-(difluoromethyl)-N-((1r,4r)-4-((3-(6-(1-methyl-1H-pyrazol-3-yl)pyridin-3-yl)-2-oxo-2,3-dihydro-1H-benzo[d]imidazol-1-yl)methyl)cyclohexyl)nicotinamide] |  | < 300 |
| O=C(N[C@H]1CC[C@H](Cn2c(=O)n(-c3ccc(-c4ncc[nH]4)cc3)c3ccccc32)CC1)c1cc(Cl)cnc1C(F)F [Example 743, N-((1r,4r)-4-((3-(4-(1H-imidazol-2-yl)phenyl)-2-oxo-2,3-dihydro-1H-benzo[d]imidazol-1-yl)methyl)cyclohexyl)-5-chloro-2-(difluoromethyl)nicotinamide] |  | < 300 |
| O=C(N[C@H]1CC[C@H](Cn2c(=O)n(-c3cccc(-c4nnco4)c3)c3ccccc32)CC1)c1cc(Cl)cnc1C(F)F [Example 748, N-((1r,4r)-4-((3-(3-(1,3,4-oxadiazol-2-yl)phenyl)-2-oxo-2,3-dihydro-1H-benzo [d]imidazol-1-yl)methyl)cyclohexyl)-5-chloro-2-(difluoromethyl)nicotinamide] |  | < 300 |
| O=C(N[C@H]1CC[C@H](Cn2c(=O)n(-c3ccc(N4CCCC4=O)cn3)c3ccccc32)CC1)c1cc(Cl)cnc1C(F)F [Example 767, 5-chloro-2-(difluoromethyl)-N-((1r,4r)-4-((2-oxo-3-(5-(2-oxopyrrolidin-1-yl)pyridin-2-yl)-2,3-dihydro-1H-benzo [d]imidazol-1-yl)methyl)cyclohexyl)nicotinamide] |  | < 300 |
| Cc1ncc(Cl)cc1C(=O)N[C@H]1CC[C@H](Cn2c(=O)n(-c3cccc(N4CCNC4=O)n3)c3ccccc32)CC1 [Example 772, 5-chloro-2-methyl-N-((1r,4r)-4-((2-oxo-3-(6-(2-oxo-imidazolidin-1-yl)pyridin-2-yl)-2,3-dihydro-1H-benzo [d]imidazol-1-yl)methyl)cyclohexyl)nicotinamide] |  | < 300 |
| O=C(N[C@H]1CC[C@H](Cn2c(=O)n(-c3cccc(N4CCNC4=O)n3)c3ccccc32)CC1)c1cc(Cl)cnc1C(F)F [Example 773, 5-chloro-2-(difluoromethyl)-N-((1r,4r)-4-((2-oxo-3-(6-(2-oxoimidazolidin-1-yl)pyridin-2-yl)-2,3-dihydro-1H-benzo [d]imidazol-1-yl)methyl)cyclo-hexyl)nicotinamide] |  | < 300 |
| CN1CCN(c2cccc(-n3c(=O)n(C[C@H]4CC[C@H](NC(=O)c5cc(Cl)cnc5C(F)F)CC4)c4ccccc43)n2)C1=O [Example 774, 5-chloro-2-(difluoromethyl)-N-((1r,4r)-4-((3-(6-(3-methyl-2-oxoimidazolidin-1-yl)pyridin-2-yl)-2-oxo-2,3-dihydro-1H-benzo[d]imidazol-1-yl)methyl)cyclohexyl) nicotinamide] |  | < 300 |
| O=C(N[C@H]1CC[C@H](Cn2c(=O)n(-c3cccc(N4CCCC4=O)n3)c3ccccc32)CC1)c1cc(Cl)cnc1C(F)F [Example 776, 5-chloro-2-(difluoromethyl)-N-((1r,4r)-4-((2-oxo-3-(6-(2-oxo-pyrrolidin-1-yl)pyridin-2-yl)-2,3-dihydro-1H-benzo[d]imidazol-1-yl)methyl)cyclo-hexyl)nicotinamide] |  | < 300 |
| Cn1ccc(-c2ccc(-n3c(=O)n(C[C@H]4CC[C@H](NC(=O)c5cc(Cl)cnc5C(F)(F)F)CC4)c4ccccc43)cn2)n1 [Example 777, 5-chloro-N-((1r,4r)-4-((3-(6-(1-methyl-1H-pyrazol-3-yl)pyridin-3-yl)-2-oxo-2,3-dihydro-1H-benzo[d]imidazol-1-yl)methyl)cyclohexyl)-2-(trifluoromethyl)nicotinamide] |  | < 300 |
